ChEMBL document CHEMBL1201862, “PubChem BioAssay data set” (2004)
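Growth conditions: 96-well plates. Treatment: test compound, 48 hours, 5 concentrations. Analysis: linear interpolation between bracketing concentrations; unreached endpoints set to highest concentration. GI50 is the concentration that inhibits growth by half.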 The source made the active and inactive calls. Rule as the data show it: active = GI50 up to about 1.1 µM and inactive = higher.

Assays:
Test in all cases: NCI-60 cell line screen, 48 h
A498 = system: A498
CAKI-1 = system: CAKI-1
EKVX = system: EKVX
HCC 2998 = system: HCC 2998
HCT-116 = system: HCT-116
HCT-15 = system: HCT-15
HL-60 = system: HL-60
LOX IMVI = system: LOX IMVI
MDA-MB-231 = system: MDA-MB-231
MOLT-4 = system: MOLT-4
NCI-H226 = system: NCI-H226
NCI-H23 = system: NCI-H23
OVCAR-5 = system: OVCAR-5
SF-268 = system: SF-268
SF-295 = system: SF-295
SN12C = system: SN12C
U-251 = system: U-251
Malme-3M = system: Malme-3M
NCI-H522 = system: NCI-H522
Hs-578T = system: Hs-578T

Row | Compound | GI50 (A498) | GI50 (CAKI-1) | GI50 (EKVX) | GI50 (HCC 2998) | GI50 (HCT-116) | GI50 (HCT-15) [µM] | GI50 (HL-60) | GI50 (LOX IMVI) | GI50 (MDA-MB-231) | GI50 (MOLT-4) | GI50 (NCI-H226) | GI50 (NCI-H23) | GI50 (OVCAR-5) | GI50 (SF-268) | GI50 (SF-295) | GI50 (SN12C) | GI50 (U-251) | GI50 (Malme-3M) | GI50 (NCI-H522) | GI50 (Hs-578T)
1 | CCOC(=O)c1cc2c(=Cc3ccc(N(C)C)cc3)c3ccccc3n2[n+]1C | 10.4 µM (inactive) | 1.64 µM (inactive) | 4.97 µM (inactive) | 1.69 µM (inactive) | 0.537 µM (active) | 10.4 | 0.372 µM (active) | 1.47 µM (inactive) | 3.86 µM (inactive) | 1.9 µM (inactive) | 8.24 µM (inactive) | 2.55 µM (inactive) | 5.98 µM (inactive) | 3.21 µM (inactive) | 3.72 µM (inactive) | < 0.01 µM (active) | 0.304 µM (active) | – | – | –
2 | CCN1c2ccccc2C(C(SC)S(=O)(=O)c2ccc(C)cc2)c2c1[nH]c(=O)n(C)c2=O (stereo unspecified) | > 100 µM (inactive) | > 100 µM (inactive) | > 100 µM (inactive) | > 100 µM (inactive) | > 100 µM (inactive) | > 100 | 89.9 µM (inactive) | > 100 µM (inactive) | – | 94 µM (inactive) | > 100 µM (inactive) | > 100 µM (inactive) | > 100 µM (inactive) | > 100 µM (inactive) | > 100 µM (inactive) | > 100 µM (inactive) | > 100 µM (inactive) | 88.1 µM (inactive) | > 100 µM (inactive) | –
3 | COC(=O)C1CC(=O)CCC1c1ccccc1 (stereo unspecified) | > 100 µM (inactive) | > 100 µM (inactive) | > 100 µM (inactive) | > 100 µM (inactive) | > 100 µM (inactive) | > 100 | > 100 µM (inactive) | > 100 µM (inactive) | – | > 100 µM (inactive) | > 100 µM (inactive) | > 100 µM (inactive) | > 100 µM (inactive) | > 100 µM (inactive) | > 100 µM (inactive) | > 100 µM (inactive) | > 100 µM (inactive) | > 100 µM (inactive) | > 100 µM (inactive) | –
4 | Clc1cc(Cl)c2ns[s+]c2c1Cl | > 100 µM (inactive) | > 100 µM (inactive) | > 100 µM (inactive) | > 10 µM (inactive) | > 100 µM (inactive) | – | > 100 µM (inactive) | > 100 µM (inactive) | – | > 100 µM (inactive) | > 100 µM (inactive) | 0.132 µM (active) | > 100 µM (inactive) | > 100 µM (inactive) | > 100 µM (inactive) | > 100 µM (inactive) | > 100 µM (inactive) | 37.8 µM (inactive) | > 100 µM (inactive) | –
5 | Cc1cc(N(CCC#N)CCC#N)ccc1/C=C\C(=O)Nc1ccccc1 | > 100 µM (inactive) | > 100 µM (inactive) | > 100 µM (inactive) | 13.6 µM (inactive) | > 100 µM (inactive) | 0.887 | 26 µM (inactive) | 1.26 µM (inactive) | – | > 100 µM (inactive) | > 100 µM (inactive) | > 100 µM (inactive) | 30.3 µM (inactive) | 97.1 µM (inactive) | 86.1 µM (inactive) | > 100 µM (inactive) | > 100 µM (inactive) | > 100 µM (inactive) | > 100 µM (inactive) | –
6 | O=C(CC(=O)C(=O)Nc1ccccc1)CC(c1ccccc1)c1c(O)c2ccccc2oc1=O (stereo unspecified) | > 100 µM (inactive) | > 100 µM (inactive) | > 100 µM (inactive) | > 100 µM (inactive) | > 100 µM (inactive) | > 100 | > 100 µM (inactive) | > 100 µM (inactive) | – | > 100 µM (inactive) | > 100 µM (inactive) | – | > 100 µM (inactive) | > 100 µM (inactive) | > 100 µM (inactive) | – | – | > 100 µM (inactive) | > 100 µM (inactive) | –
7 | CCOC(=O)c1c2ccc(/C=C/c3ccccc3)ccc-2c(C(=O)OCC)c1N | 36.1 µM (inactive) | > 100 µM (inactive) | > 100 µM (inactive) | 95.5 µM (inactive) | > 100 µM (inactive) | > 100 | > 100 µM (inactive) | > 100 µM (inactive) | – | > 100 µM (inactive) | > 100 µM (inactive) | 32 µM (inactive) | > 100 µM (inactive) | > 100 µM (inactive) | > 100 µM (inactive) | – | – | > 100 µM (inactive) | > 100 µM (inactive) | –
8 | CC(C)=C=CC(C)(C)NS(=O)(=O)NC(C)(C)C=C=C(C)C | > 100 µM (inactive) | > 100 µM (inactive) | > 100 µM (inactive) | 25.5 µM (inactive) | > 100 µM (inactive) | > 100 | 28.2 µM (inactive) | > 100 µM (inactive) | – | – | > 100 µM (inactive) | > 100 µM (inactive) | > 100 µM (inactive) | 89.3 µM (inactive) | > 100 µM (inactive) | > 100 µM (inactive) | > 100 µM (inactive) | > 100 µM (inactive) | 56.6 µM (inactive) | > 100 µM (inactive)
9 | Cc1cc(C)nc(NS(=O)(=O)c2ccc(NC(=O)c3ccc(Cl)c4c(Nc5ccc(S(=O)(=O)Nc6cc(C)on6)cc5)c5ccccc5nc34)cc2)n1 | 15.3 µM (inactive) | 15.7 µM (inactive) | 19 µM (inactive) | 18.7 µM (inactive) | 20.4 µM (inactive) | – | 8.95 µM (inactive) | 15.8 µM (inactive) | – | 22.9 µM (inactive) | 17.5 µM (inactive) | 14.5 µM (inactive) | 21 µM (inactive) | 15 µM (inactive) | 18.2 µM (inactive) | 17.9 µM (inactive) | 15.3 µM (inactive) | 20.9 µM (inactive) | 16.1 µM (inactive) | –
10 | O=C1C[C@@H]2[C@@H](C=CC23CC3)N1O | > 100 µM (inactive) | > 100 µM (inactive) | > 100 µM (inactive) | > 100 µM (inactive) | > 100 µM (inactive) | – | > 100 µM (inactive) | > 100 µM (inactive) | – | > 100 µM (inactive) | > 100 µM (inactive) | > 100 µM (inactive) | > 100 µM (inactive) | > 100 µM (inactive) | > 100 µM (inactive) | > 100 µM (inactive) | > 100 µM (inactive) | > 100 µM (inactive) | > 100 µM (inactive) | –
11 | O=c1[nH]c(=O)n(C2CC(O)C(CO)O2)cc1OS(=O)(=O)C(F)(F)F (stereo unspecified) | > 100 µM (inactive) | > 100 µM (inactive) | > 100 µM (inactive) | > 100 µM (inactive) | > 100 µM (inactive) | > 100 | > 100 µM (inactive) | > 100 µM (inactive) | – | > 100 µM (inactive) | > 100 µM (inactive) | > 100 µM (inactive) | > 100 µM (inactive) | > 100 µM (inactive) | > 100 µM (inactive) | > 100 µM (inactive) | > 100 µM (inactive) | > 100 µM (inactive) | > 100 µM (inactive) | –
12 | O=C1C2=Cc3ccccc3OC2(O)Oc2cc(O)ccc21 (stereo unspecified) | > 100 µM (inactive) | > 100 µM (inactive) | > 100 µM (inactive) | > 100 µM (inactive) | > 100 µM (inactive) | 97.7 | – | > 100 µM (inactive) | > 100 µM (inactive) | > 100 µM (inactive) | > 100 µM (inactive) | > 100 µM (inactive) | > 100 µM (inactive) | > 100 µM (inactive) | > 100 µM (inactive) | > 100 µM (inactive) | > 100 µM (inactive) | > 100 µM (inactive) | – | –
